Assay results reported in BindingDB's records for doi:10.1016/S0960-894X(01)80767-8 (1993).

molecular target: L-type calcium channel (Cavia porcellus); test: Displacement of [3H]diltiazem from L-type calcium channel of guinea pig striated muscle

| Ki [µM] | SMILES |
| --- | --- |
| 0.54 | COc1ccc([C@@H]2Sc3ccccc3N(CCN(C)C)C(=O)[C@@H]2C)cc1 [(2R,3S)-5-(2-Dimethylamino-ethyl)-2-(4-methoxy-phenyl)-3-methyl-2,3-dihydro-5H-benzo[b][1,4]thiazepin-4-one] |
| 0.085 | COc1ccc([C@@H]2Sc3cc(OC)ccc3N(CCN(C)C)C(=O)[C@@H]2C)cc1 [(2R,3S)-5-(2-Dimethylamino-ethyl)-8-methoxy-2-(4-methoxy-phenyl)-3-methyl-2,3-dihydro-5H-benzo[b][1,4]thiazepin-4-one] |
| 0.042 | COc1ccc([C@@H]2Sc3cc(OC)ccc3N(CCN(C)C)C(=O)[C@@H]2OC(C)=O)cc1 [Acetic acid (2S,3S)-5-(2-dimethylamino-ethyl)-8-methoxy-2-(4-methoxy-phenyl)-4-oxo-2,3,4,5-tetrahydro-benzo[b][1,4]thiazepin-3-yl ester] |
